# Experiments:
# Assay type in all cases: cell-based, human
# Vδ1 T cells [1] = assay: Adenosine measurement by MALDI TOF spectrometry in supernatants of amplified Vδ1 T cells
# Description: Amplified Vδ1 T cells (2.106 cells/mL) were washed in cold PBS and resuspended in PBS supplemented with 50 mM AMP (Sigma) at 4° C. for 30 min. After centrifugation, adenosine levels in supernatants were analyzed by MALDI-TOF mass spectrometry, as previously described by Bastid et al..
# Vδ1 T cells [2] = assay: ELISA of IL-10, IL-8 and TGF-β in supernatants of expanded Vδ1 T cells
# From the text: Phytohemagglutinin (PHA) was purchased from Thermofisher Scientific. The anti-human CD3 (UCHT1), and the anti-human TCR γδ and TCR Vδ1 antibodies were purchased from Beckman Coulter (Brea, Calif., USA). Anti-human CD3, CD73, CD39 and their isotypically matched control mouse antibodies were from BD Biosciences (San Jose, Calif., USA). The anti-human TCR γδ antibody used for IHC was from Santa Cruz Biotechnology (USA). Recombinant human IL-2 (rhIL-2) was from Novartis Pharma (Rueil-Malmaison, France), and recombinant IL-21 (rhIL-21) was from Miltenyi Biotec (Paris, France). ELISA kits for detecting human IL-10 and IL-8 were from BD Biosciences (San Jose, Calif., USA). ELISA kit for the detection of human TGFβ was from RD system.
# Expanded Vδ1 T cells (2.106 cells/mL) were incubated in fresh medium without cytokines in wells coated or not with the anti-CD3 antibody (UCHT1) for 6 h, and then supernatants were collected. IL-8 and IL-10 protein levels were assessed using the relevant BD Biosciences Opteia Kits. The mean values of duplicate samples from the same experiment are shown for each data point with their standard error of the mean (SEM).
# Vδ1 T cells [3] = assay: Flow cytometry of CD39, CD73 and PD-L1 expression in expanded Vδ1 T cells
# From the text: Peripheral Blood Mononuclear Cells (PBMCs) were obtained by density centrifugation on Ficoll-Paque (Eurobio, Les Ulis, France) of blood samples from healthy donors and breast cancer patients. Healthy donor samples were provided by the Etablissement Français du Sang (Convention EFS-OCPM no 21PLER2018-0069) and the blood of patients was provided by the ICM (BCB-EC-1-FR-ICM-ENR-269-004-CRB). […] Vδ1 T cells were isolated from PBMCs by a positive immunoselection using the anti-human Vδ1 antibody (Beckman Coulter) and anti-IgG1 magnetic beads (Miltenyi Biotec). Briefly, 300.106 cells were incubated with 10 μg of anti-human Vδ1 antibody in 5 ml of PBS supplemented with 2% SVF and EDTA (2 mM) for 1 hour at 4° C., then washed and incubated with 200 μl of anti-IgG1 magnetic beads for 1 hour at 4° C., then washed and collected on column according to the manufacturer's instructions (Miltenyi Biotec). Reproducible high purity of Vδ1 T cells (>90%) was obtained with this protocol. Purified Vδ1 T cells (2.106 cells/ml) were stimulated with 2 μg/mL of PHA in the presence of syngeneic macrophages isolated using their adherence properties. Briefly, PBMC (2.106/ml) were incubated in RPMI 10% FCS for 1 hour at 37° C. in 96 well-plates to allow to monocytes to adhere and differentiate in macrophages. Non-adherent cells were removed by 2 washes with RPMI medium. Purified Vδ1 T cells were added to macrophages, activated by PHA and expanded in the complete medium containing RPMI 1640/Glutamax medium supplemented with 5% human AB serum and 5% fetal calf serum (FCS) in the presence of rhIL-2 (control) or rhIL-2+rhIL-21 (experimental condition) at 37° C. in humidified atmosphere with 5% CO2. Every 2 days, fresh medium is added and after 1 week Vδ1 T cells were separated from adherent macrophages and amplified in the complete medium with cytokines for 2 more weeks before phenotyping and analysis.
# Cells were first incubated at 4° C. for 30 min with Fc-block solution to minimize non-specific binding of antibodies to Fc receptors, then incubated with a dye cell viability and the panel of antibodies in the staining buffer (PBS-2% FCS) at 4° C. for 30 min, cells were then washed and fixed in 1% paraformaldehyde. Data were acquired with a Cytoflex cytometer (Beckman-Coulter) and analyzed with the FlowJo software.
# Peripheral Blood Mononuclear Cells (PBMCs) were obtained by density centrifugation on Ficoll-Paque (Eurobio, Les Ulis, France) of blood samples from healthy donors and breast cancer patients. Healthy donor samples were provided by the Etablissement Français du Sang and the blood of patients was provided by the Institut regional du Cancer de Montpellier (ICM). […] Vδ1 T cells were isolated from PBMCs by a positive immunoselection using the anti-human Vδ1 antibody (Beckman Coulter) and anti-IgG1 magnetic beads (Miltenyi Biotec). Briefly, 300.106 cells were incubated with 10 μg of anti-human Vδ1 antibody in 5 ml of PBS supplemented with 2% SVF and EDTA (2 mM) for 1 hour at 4° C., then washed and incubated with 200 μl of anti-IgG1 magnetic beads for 1 hour at 4° C., then washed and collected on column according to the manufacturer's instructions (Miltenyi Biotec). Reproducible high purity of Vδ1 T cells (>90%) was obtained with this protocol. Purified Vδ1 T cells (2.106 cells/ml) were stimulated with 2 μg/mL of PHA in the presence of syngeneic macrophages isolated using their adherence properties. […]
Compound,adenosine production by control and IL-21-amplified Vδ1 T cells (Vδ1 T cells [1]; in the presence of the CD73 inhibitor),"IL-10 production after TCR/CD3 activation (Vδ1 T cells [2]; IL-21-amplified CD73+ Vδ1 T cells, not in the CD73− cells)","IL-10 in supernatants, absence of activation (Vδ1 T cells [2]; IL-21-amplified Vδ1 T cells, CD73+ or CD73−, not detected in control cells)",IL-8 production (Vδ1 T cells [2]; activated IL-21-amplified CD73+ Vδ1 T cells only),TGF-β secretion (Vδ1 T cells [2]; any of the tested conditions),"adenosine generated in the presence of AMP (Vδ1 T cells [1]; IL-21-amplified Vδ1 T cells, control cells (only rhIL-2) ~0.4 μM) [µM]",percentage of CD39-positive cells (Vδ1 T cells [3]; Vδ1 T cells from healthy donors expanded with rhIL-2+rhIL-21 vs rhIL-2 only (control)),"fraction of Vδ1 T cells expressing PD-L1 (Vδ1 T cells [3]; cells exposed to rhIL-21, about 50% in the control condition) [%]","fraction of CD39/CD73-positive Vδ1 T cells (Vδ1 T cells [3]; expanded with rhIL-2+rhIL-21, vs 18% in control cells) [%]","fraction of CD73-positive Vδ1 T cells (Vδ1 T cells [3]; expanded with rhIL-2+rhIL-21, vs 20% in the control condition (rhIL-2 only)) [%]","percentage of PD-L1+ in CD73-positive Vδ1 T cells (Vδ1 T cells [3]; exposure to rhIL-21 vs control, around 60%)"
"Nc1ncnc2c1ncn2[C@@H]1O[C@H](COP(=O)([O-])CP(=O)(O)O)[C@@H](O)[C@H]1O.[Na+] [APCP, adenosine 5′-(α,β-methylene)-diphosphate sodium salt, reference compound]",strongly impaired,–,–,–,–,–,–,–,–,–,–
"rhIL-21: recombinant IL-21 (rhIL-21) from Miltenyi Biotec, cytokine added with rhIL-2 to expand Vδ1 T cells",–,strongly increased,basal level,highly present,did not detect,~1.4,did not modify,65,40,50,did not modify

# Reference: patent US20230086718A1, “METHOD FOR PREDICTING THE SURVIVAL TIME OF A PATIENT SUFFERING FROM A CANCER” (INSERM (INSTITUT NATIONAL DE LA SANTÉ ET DE LA RECHERCHE …, priority 2020, published 2023)
